From patent publication US11427548B2 (Arvinas Operations, Inc., priority 2015, dated 2022)
Read-outs that look alike come from different tables or passages of the source.

Biological target: T1, Androgen Receptor (Homo sapiens, UniProt P10275)
T1 construct: endogenous in cells; host or cells: VCaP cells
T1 sequence (P10275 1-920): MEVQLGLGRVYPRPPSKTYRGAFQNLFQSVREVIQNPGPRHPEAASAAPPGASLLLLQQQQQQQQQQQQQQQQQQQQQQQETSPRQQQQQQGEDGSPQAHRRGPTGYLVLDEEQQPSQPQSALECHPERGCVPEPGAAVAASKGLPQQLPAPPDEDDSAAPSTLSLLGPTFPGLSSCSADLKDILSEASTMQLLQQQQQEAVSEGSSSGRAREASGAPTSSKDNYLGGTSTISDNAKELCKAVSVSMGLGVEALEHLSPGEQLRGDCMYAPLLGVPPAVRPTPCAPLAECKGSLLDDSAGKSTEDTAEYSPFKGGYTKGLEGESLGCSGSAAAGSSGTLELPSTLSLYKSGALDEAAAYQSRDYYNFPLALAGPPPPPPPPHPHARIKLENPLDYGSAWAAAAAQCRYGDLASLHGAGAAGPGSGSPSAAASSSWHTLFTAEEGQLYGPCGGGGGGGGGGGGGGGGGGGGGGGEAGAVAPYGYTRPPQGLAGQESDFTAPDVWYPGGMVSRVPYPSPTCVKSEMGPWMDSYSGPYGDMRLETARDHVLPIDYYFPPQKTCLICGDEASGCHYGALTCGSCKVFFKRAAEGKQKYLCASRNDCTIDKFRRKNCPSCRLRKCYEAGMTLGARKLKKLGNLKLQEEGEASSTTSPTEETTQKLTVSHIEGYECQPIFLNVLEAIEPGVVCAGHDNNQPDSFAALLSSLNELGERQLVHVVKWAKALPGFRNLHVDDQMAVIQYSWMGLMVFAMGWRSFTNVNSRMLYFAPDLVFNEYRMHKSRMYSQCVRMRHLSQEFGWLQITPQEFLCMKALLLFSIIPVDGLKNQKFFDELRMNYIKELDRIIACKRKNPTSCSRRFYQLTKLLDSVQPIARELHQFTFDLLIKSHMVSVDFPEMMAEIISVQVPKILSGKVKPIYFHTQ
Experiment: Androgen Receptor ELISA assay (PathScan AR ELISA) in VCaP cells: AR degradation, Dmax and DC50
Assay type: cell-based
In short: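 After 24 h exposure of VCaP cells (charcoal-stripped serum, 0.1 nM R1881 agonist, 0.1% DMSO) to seven half-log compound concentrations, residual AR in lysates was measured by PathScan ELISA (TMB absorbance, 450 nm). Cells were plated at 30,000/well and grown at least 3 days beforehand.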

[1] = VCaP cells; Table 35; read-out: VCaP DC50
[2] = VCaP, VCaP cells; Table 35; read-out: VCaP Dmax (%)
[3] = VCaP cells; Table 36; read-out: VCaP DC50
[4] = read-out: VCaP DC50; concentration that caused 50% Androgen Receptor degradation, VCaP cells (Table 32)
[5] = VCaP, VCaP cells; Table 36; read-out: VCaP Dmax (%)

With `Cc1ncsc1-c1ccc([C@H](C)NC(=O)[C@@H]2C[C@@H](O)CN2C(=O)[C@@H](NC(=O)CNC(=O)c2ccc(Oc3ccc(C(=O)N[C@H]4C(C)(C)[C@H](Oc5ccc(C#N)c(Cl)c5)C4(C)C)cn3)cc2)C(C)(C)C)nc1` [Example 432] the DC50 [1] was over 501 nM and the Dmax [2] was under 25%.
Compound `Cc1ncsc1-c1ccc([C@H](C)NC(=O)[C@H]2C[C@H](O)CN2C(=O)[C@@H](NC(=O)CN2C3CCC2CN(CCCCc2ccc(C(=O)N[C@H]4C(C)(C)[C@H](Oc5ccc(C#N)c(Cl)c5)C4(C)C)cc2)C3)C(C)(C)C)cc1` [Example 858, (2R,4S)-1-((2S)-2-(2-(3-(4-(4-(((1r,3r)-3-(3-chloro-4-cyanophenoxy)-2,2,4,4-tetramethylcyclobutyl)carbamoyl)phenyl)butyl)-3,8-diazabicyclo[3.2.1]octan-8-yl)acetamido)-3,3-dimethylbutanoyl)-4-hydroxy-N-((S)-1-(4-(4-methylthiazol-5-yl)phenyl)ethyl) pyrrolidine-2-carboxamide] has a DC50 [3] of over 501 nM and a Dmax (VCaP, read-out: VCaP Dmax (%)) of under 25%.
`CC(C)(C)[C@H](NC(=O)COCCCCOc1ccc(-c2ccc(N3C(=S)N(c4ccc(C#N)c(Cl)c4)C(=O)C34CCC4)cc2)cc1)C(=O)N1C[C@H](O)C[C@H]1C(=O)NCc1ccc(-c2cnco2)cc1` [Example 124, (2S,4R)-1-[(2S)-2-{2-[4-(4-{4-[7-(3-chloro-4-cyanophenyl)-8-oxo-6-sulfanylidene-5,7-diazaspiro[3.4]octan-5-yl]phenyl}phenoxy)butoxy]acetamido}-3,3-dimethylbutanoyl]-4-hydroxy-N-{[4-(1,3-oxazol-5-yl)phenyl]methyl}pyrrolidine-2-carboxamide] was tested, and the Dmax (VCaP, read-out: VCaP Dmax (%)) was 51 to 70% and the DC50 [4] was under 50 nM.
With `CC(C)(C)[C@H](NC(=O)COCC1CC2(C1)CC(COc1ccc(N3C(=S)N(c4ccc(C#N)c(Cl)c4)C(=O)C3(C)C)cc1)C2)C(=O)N1C[C@H](O)C[C@H]1C(=O)NCc1ccc(-c2cnco2)cc1` (stereo partly drawn) [Example 200] the Dmax (VCaP, read-out: VCaP Dmax (%)) was over 71% and the DC50 (read-out: VCaP DC50; VCaP cells; concentration that caused 50% Androgen Receptor degradation) was under 50 nM.
`Cc1ncsc1-c1ccc([C@H](C)NC(=O)[C@@H]2C[C@@H](O)CN2C(=O)[C@@H](NC(=O)CN2CCC(CN3CCN(c4ccc(C(=O)N[C@H]5C(C)(C)[C@H](Oc6ccc(C#N)c(Cl)c6)C5(C)C)cn4)CC3)CC2)C(C)(C)C)cc1` [Example 825, N-((1r,3r)-3-(3-chloro-4-cyanophenoxy)-2,2,4,4-tetramethylcyclobutyl)-6-(4-((1-(2-(((S)-1-((2S,4R)-4-hydroxy-2-(((S)-1-(4-(4-methylthiazol-5-yl)phenyl)ethyl)carbamoyl)pyrrolidin-1-yl)-3,3-dimethyl-1-oxobutan-2-yl)amino)-2-oxoethyl)piperidin-4-yl)methyl)piperazin-1-yl)nicotinamide] gave a DC50 [3] of under 50 nM and a Dmax (VCaP, read-out: VCaP Dmax (%)) of over 71%.
In the case of `COc1cc(-c2scnc2C)ccc1CNC(=O)C1C[C@@H](O)CN1C(=O)[C@@H](NC(=O)COCCN1CCN(c2ccc(C(=O)N[C@H]3C(C)(C)[C@H](Oc4ccc(C#N)c(Cl)c4)C3(C)C)cn2)CC1)C(C)(C)C` (stereo partly drawn) [Example 793, N-((1r,3r)-3-(3-chloro-4-cyanophenoxy)-2,2,4,4-tetramethylcyclobutyl)-6-(4-(2-(2-(((S)-1-((2S,4R)-4-hydroxy-2-((2-methoxy-4-(4-methylthiazol-5-yl)benzyl)carbamoyl)pyrrolidin-1-yl)-3,3-dimethyl-1-oxobutan-2-yl)amino)-2-oxoethoxy)ethyl)piperazin-1-yl)nicotinamide], the DC50 [3] is reported as under 50 nM and the Dmax [5] is reported as over 71%.
`Cc1ncsc1-c1ccc([C@H](C)NC(=O)[C@@H]2C[C@@H](O)CN2C(=O)[C@@H](NC(=O)COCCCCOc2ccc(-c3ccc(C(=O)N[C@H]4C(C)(C)[C@H](Oc5ccc(C#N)c(Cl)c5)C4(C)C)cc3)cc2)C(C)(C)C)cc1` [Example 630, (2S,4R)-1-((S)-2-(2-(4-((4′-(((1r,3r)-3-(3-chloro-4-cyanophenoxy)-2,2,4,4-tetramethylcyclobutyl)carbamoyl)-[1,1′-biphenyl]-4-yl)oxy)butoxy)acetamido)-3,3-dimethylbutanoyl)-4-hydroxy-N-((S)-1-(4-(4-methylthiazol-5-yl)phenyl)ethyl)pyrrolidine-2-carboxamide] gave a DC50 [3] of under 50 nM and a Dmax (VCaP, read-out: VCaP Dmax (%), VCaP cells; Table 36) of over 71%.
Compound `CC(C)(C)[C@H](NC(=O)COCCNc1ccc(-c2ccc(C(=O)N[C@H]3C(C)(C)[C@H](Oc4ccc(C#N)c(Cl)c4)C3(C)C)cc2)cn1)C(=O)N1C[C@H](O)C[C@H]1C(=O)NCc1ccc(C#N)cc1` [Example 540] has a DC50 [1] of under 50 nM and a Dmax [2] of over 71%.
`COc1cc(OCCCCOCC(=O)N[C@H](C(=O)N2C[C@H](O)C[C@H]2C(=O)NCc2ccc(-c3scnc3C)cc2)C(C)(C)C)ccc1-c1ccc(N2C(=S)N(c3ccc(C#N)c(C(F)(F)F)c3)C(=O)C2(C)C)cc1` [Example 140, (2S,4R)-1-[(2S)-2-(2-{4-[4-(4-{3-[4-cyano-3-(trifluoromethyl)phenyl]-5,5-dimethyl-4-oxo-2-sulfanylideneimidazolidin-1-yl}phenyl)-3-methoxyphenoxy]butoxy}acetamido)-3,3-dimethylbutanoyl]-4-hydroxy-N-{[4-(4-methyl-1,3-thiazol-5-yl)phenyl]methyl}pyrrolidine-2-carboxamide] was tested, and the Dmax (VCaP, read-out: VCaP Dmax (%)) was over 71% and the DC50 [4] was under 50 nM.
For `Cc1ncsc1-c1ccc(CNC(=O)[C@@H]2C[C@@H](O)CN2C(=O)[C@@H](NC(=O)COCCCCNC(=O)c2ccc(C(=O)N[C@H]3C(C)(C)[C@H](Oc4ccc(C#N)c(Cl)c4)C3(C)C)cc2)C(C)(C)C)cc1` [Example 398], the DC50 (VCaP cells; Table 34; read-out: VCaP DC50) was under 50 nM and the Dmax (VCaP, VCaP cells; Table 34; read-out: VCaP Dmax (%)) was 26 to 50%.
`Cc1ncsc1-c1ccc(CNC(=O)[C@@H]2C[C@@H](O)CN2C(=O)[C@@H](NC(=O)COCCN2CCN(c3ccc(C(=O)N[C@H]4C(C)(C)[C@H](Oc5ccc(C#N)c(Cl)c5)C4(C)C)cc3)CC2)C(C)(C)C)cc1` [Example 544] was tested, and the DC50 [1] was under 50 nM and the Dmax [2] was over 71%.
Compound `Cc1ncsc1-c1ccc([C@H](C)NC(=O)[C@@H]2C[C@@H](O)CN2C(=O)[C@@H](NC(=O)COCCN2CCN(c3ccc(C(=O)N[C@H]4C(C)(C)[C@H](Oc5ccc(C#N)c(C(F)(F)F)c5)C4(C)C)cn3)CC2)C(C)(C)C)cc1` [Example 855, N-((1r,3r)-3-(4-cyano-3-(trifluoromethyl)phenoxyl)-2,2,4,4-tetramethylcyclobutyl)-6-(4-(2-(2-(((S)-1-((2S, 4R)-4-hyrdoxy-2-(((S)-1-(4-(4-methylthiazol-5-yl)phenyl)ethyl)carbamoyl)pyrrolidin-1-yl)-3,3-dimethyl-1-oxobutan-2-yl)amino)-2-oxoethoxy)ethyl)piperazin-1-yl) nicotinamide] has a DC50 [3] of under 50 nM and a Dmax [5] of over 71%.
Compound `Cc1ncsc1-c1ccc(CNC(=O)[C@@H]2C[C@@H](O)CN2C(=O)[C@@H](NC(=O)COCCCC[C@@H](C)Oc2ccc(C(=O)N[C@H]3C(C)(C)[C@H](Oc4ccc(C#N)c(Cl)c4)C3(C)C)cc2)C(C)(C)C)cc1` [Example 160, (2S,4R)-1-[(2S)-3,3-dimethyl-2-(2-{[(5S)-5-(4-{[trans-3-(3-chloro-4-cyanophenoxy)-2,2,4,4-tetramethylcyclobutyl]carbamoyl}phen-oxy)hexyl]oxy}acetamido)butanoyl]-4-hydroxy-N-{[4-(4-methyl-1,3-thiazol-5-yl)phenyl]methyl}pyrrolidine-2-carboxamide] has a Dmax (VCaP, highest percentage of Androgen Receptor degradation observed, VCaP cells (Table 32); read-out: VCaP Dmax (%)) of over 71% and a DC50 (concentration that caused 50% Androgen Receptor degradation, VCaP cells (Table 32); read-out: VCaP DC50) of under 50 nM.
`Cc1ncsc1-c1ccc(C(CO)NC(=O)C2C[C@@H](O)CN2C(=O)[C@@H](NC(=O)COCCN2CCN(c3ccc(C(=O)N[C@H]4C(C)(C)[C@H](Oc5ccc(C#N)c(Cl)c5)C4(C)C)cn3)CC2)C(C)(C)C)cc1` (stereo partly drawn) [Example 671, N-((1r,3r)-3-(3-chloro-4-cyanophenoxy)-2,2,4,4-tetramethylcyclobutyl)-6-(4-(2-(2-(((S)-1-((2S,4R)-4-hydroxy-2-((2-hydroxy-1-(4-(4-methylthiazol-5-yl)phenyl)ethyl)carbam-oyl)pyrrolidin-1-yl)-3,3-dimethyl-1-oxobutan-2-yl)amino)-2-oxoethoxy)ethyl)pipera-zin-1-yl)nicotinamide] was tested, and the DC50 [3] was under 50 nM and the Dmax [5] was over 71%.
Work on `CC(C)(C)[C@H](NC(=O)COCCCOCCCCOc1ccc(N2C(=S)N(c3ccc(C#N)c(C(F)(F)F)c3)C(=O)C2(C)C)cc1)C(=O)N1C[C@H](O)C[C@H]1C(=O)NCc1ccc(-c2cn[nH]c2)cc1` [Example 376] yielded a Dmax (VCaP, read-out: VCaP Dmax (%)) of 51 to 70% and a DC50 (read-out: VCaP DC50; VCaP cells; Table 34) of under 50 nM.
